Data: patent publication US9637459B2, “Sodium and calcium salts of dihydroquinazoline derivative and use thereof as antiviral agents” (AiCuris GmbH & Co. KG, priority 2012, dated 2017)
Values after ≈ are worked out from the molar mass of the structure shown. Where two headings read alike, the source gives them in different places.

Key:
[1] = Solubility measurement of saturated solution in phosphate buffer (HPLC); type: physicochemical
Protocol: In order to determine the solubility, a saturated solution of the salt from Example 2 was prepared in phosphate buffer at pH 7.0 and shaken at room temperature for 2 hours. The suspensions obtained were filtered by means of a syringe filter (0.45 μm pore diameter) and after being diluted the clear solutions were measured by HPLC. Pure phosphate buffer was used as the blank sample. The solubility was calculated in terms of the absorption of a reference solution of the amorphous zwitterion in phosphate buffer.

[2] = tested on: HCMV AD169 RV-HG; experiment: HCMV fluorescence-reduction test (GFP-RA) in NHDF cells; type: cell-based, human cytomegalovirus; conditions: read-out: EC50 (GFP-RA)
Protocol: The in vitro effects of the compositions according to the present invention on the replication of the HCMV (human cytomegalovirus) can be seen in the following antiviral assay:
HCMV Fluorescence-Reduction Test.
The test compositions are used as a 50-millimolar (mM) solution in dimethyl sulphoxide (DMSO). Ganciclovir®, Foscarnet® or Cidofovir® can be used as reference compositions. One day before the beginning of the test, 1.5×10^4 human foreskin fibroblasts (NHDF cells)/well are seeded in 200 μl of cell culture medium in Wells B2-G11 of 96-well plates (black with transparent floor). The wells along the edges of each 96-well plate are filled with 200 μl of medium only in order to prevent edge effects. On the day of the test the cell culture medium in Wells B2-G11 of each 96-well plate is vacuumed off by a suction device and replaced with 100 μl of virus suspension (multiplicity of infection (MOI): 0.1-0.2). The virus used is a recombinant HCMV which has integrated an expression cassette for green fluorescence protein (GFP) in the virus genome (HCMV AD 169 RV-HG [E. M. Borst, K. Wagner, A. Binz, B. Sodeik, and M. Messerle, 2008, J. Virol. 82:2065-2078.]). After an incubation time of 2 h at 37° C. and 5% CO2, the virus inoculate is vacuumed off by a suction device and all wells, with the exception of the wells in Column 3, are filled with 200 μl of cell culture medium. Column 2 is not treated further and serves as a virus control. The wells in Column 3 are each filled with 300 μl of test substance (diluted in cell culture medium) for duplicate analysis. The concentration of the respective antiviral substance in Column 3 is ˜27 times as concentrated as the respective anticipated EC50 value. […] The GFP intensity of each well in a 96-well plate is then determined using a fluorescence scanner (FluoBox; Bayer Technology Services GmbH; filter settings: GFP, […], Em 520 nm). The measured values thus obtained can be used to determine the EC50 of an anti-HCMV: […]

[3] = Human betaherpesvirus 5, AD169, NHDF, 168 h

Q: What does the source list for `COc1cccc(N2CCN(C3=Nc4c(F)cccc4[C@H](CC(=O)[O-])N3c3cc(C(F)(F)F)ccc3OC)CC2)c1.O.O.O.[Na+]` [Example 2, 3-hydrate of the monosodium salt of (S)-{8-fluoro-2-[4-(3-methoxyphenyl)piperazine-1-yl]-3-[2-methoxy-5-(trifluoromethyl)phenyl]-3,4-dihydroquinazoline-4-yl}acetic acid]?
A: Solubility in buffer ([1]; pH 7): >91700 µg/mL; EC50 ([2]; virus strain AD169 RV-HG, human foreskin fibroblasts (NHDF cells), 7 days incubation, 50% reduction of GFP fluorescence): 3.9 nM

Q: Which EC50 [2, 3] does the source give for `Nc1nc(O)c2ncn(COC(CO)CO)c2n1` [Ganciclovir, reference compound] here?
A: 2200 nM

Q: Which results are given for `COc1cccc(N2CCN(C3=Nc4c(F)cccc4[C@H](CC(=O)O)N3c3cc(C(F)(F)F)ccc3OC)CC2)c1` [Example 6A, (S)-{8-fluoro-2-[4-(3-methoxyphenyl)piperazine-1-yl]-3-(2-methoxy-5-trifluoromethyl-phenyl)-3,4-dihydroquinazoline-4-yl}acetic acid]?
A: solubility at 2 h ([1]; aqueous buffer, thermodynamic from solid, phosphate buffer pH 7.0, room temperature, shaken 2 hours, filtered 0.45 μm, HPLC): 400 µg/mL (≈ 699 µM); EC50 [2, 3]: 3.4 nM
